Source: US12403144B2, “HECT E3 ligase inhibitors and uses thereof” (IFOM FONDAZIONE ISTITUTO FIRC DI ONCOLOGIA MOLECOLARE, priority 2019, dated 2025)
Structures can show the parent of a compound that is named as a salt.

What was measured:
LNCaP cells = experiment: CellTiter-Glo Luminescent Cell Viability Assay, LNCaP; format: cell-based; details: Homo sapiens, 48 hours incubation, mean of at least two determinations, read-out: LNCaP IC50 μM (antiproliferative activity)
Excerpt: (§1) CellTiter-Glo® Luminescent Cell Viability Assay (Promega, Catalog number: G7571) is a homogeneous method of determining the number of viable cells in culture based on quantitation of the present ATP, which indicates the presence of metabolically active cells. The homogeneous assay procedure involves addition of a single reagent (CellTiter-Glo® Reagent) directly to the cells, which leads to cell lysis and generation of a luminescent signal proportional to the amount of the ATP and the number of cells present in culture. The assay relies on the properties of a proprietary thermostable luciferase (Ultra-Glo® recombinant luciferase), which generates a luminescent signal.
(§2) DU145 cells (obtained from CLS Cell Lines Service GmbH item 300168) were grown in DMEM (Sigma Aldrich catalog number D6171-500 ml) supplemented with 10% Fetal Bovine Serum (Euroclone, catalog number. ECS0180L), 2 mM L-Glutamine (Euroclone catalog number LOBE17605F) and 100 U/ml penicillin-[…] streptomycin (EuroClone, ECB3001L). LNCaP cells (obtained from CLS Cell Lines Service GmbH item 300265) were grown in RPMI1640 (Lonza catalog number BE12-167F) supplemented with 10% Fetal Bovine Serum (Euroclone, catalog number. ECS0180L), 2 mM L-Glutamine (Euroclone catalog number LOBE17605F) and 100 U/ml penicillin-[…] streptomycin (EuroClone, ECB3001 L).
(§3) To determine the antiproliferative activity of the compounds, 3000 DU145 cells and 5000 LNCap cells were seeded in 96 multiwell plate (Sigma catalog number CLS9102) per well. 24 hours after seeding, the cells were incubated for 48 hours with different concentrations of the inhibitors (from 50 to 0 μM with a 3-fold dilution) dissolved in DMSO. After 48 hours, a volume of CellTiter-Glo® Reagent equal to the volume of cell culture medium was added. The content was mixed for 2 min to induce cell lysis. The luminescence was measured and recorded with Tecan Infinite 200 multimode plate reader after further 10 min at room temperature in order to obtain a stable luminescent signal.
(§4) The IC50 was calculated using GraphPad Software from the recorded luminescent signal.

DU145 cells = experiment: CellTiter-Glo Luminescent Cell Viability Assay, DU145; format: cell-based; details: Homo sapiens, DU-145; 48 hours incubation; mean of at least two determinations; read-out: DU145 IC50 μM (antiproliferative activity)
Excerpt: as §1, §2, §3, §4

[1] = target: T1, His-MPB tagged HECT of HECW2 (E3 ligase) (Homo sapiens, UniProt Q9P2P5); experiment: In vitro ubiquitination assay TR-FRET based, HECW2; format: biochemical; details: read-out: percentage of inhibition (HECW2)
T1 construct: using His-MPB tagged HECT of HECW2 (E3 ligase) instead of untagged HECT of NEDD4 wild-type (WT) (E3 ligase); made in house
Description: To determine the selectivity of identified NEDD4 inhibitors, it was quantitatively measured the self-ubiquitination process of the E3 HECT ligase belonging to NEDD4 family such as NEDD4L, HECW2 and ITCH in presence or not of some compounds such as 5, 9, 12, 29, 42, 45, 56, 58, 61, 77, 78, 85 and 94 employing TR-FRET based assays.
The assay was performed as described above in the paragraph titled “In vitro ubiquitination assay TR-FRET based” under the heading “2.1. NEDD4 UBIQUITINATION ASSAYS” using His-MPB tagged HECT of HECW2 (E3 ligase) instead of untagged HECT of NEDD4 wild-type (WT) (E3 ligase). In this case, final E1, E2 and E3 concentrations in the assay buffer (Tris-HCl pH 7.6 25 mM, NaCl 100 mM, MgCl2 5 mM and Tween 0.01%) were 30, 350 and 62.5 nanomolars, respectively. His-MPB tagged HECT of HECW2 (E3 ligase) enzyme was produced and purified as reported in E. Maspero et al. Methods Mol Biol. 1449:153-60 (2016) and in E. Maspero et al. EMBO Reports 12:342-349(2011).

T1 sequence (Q9P2P5 1237-1572 limits assumed): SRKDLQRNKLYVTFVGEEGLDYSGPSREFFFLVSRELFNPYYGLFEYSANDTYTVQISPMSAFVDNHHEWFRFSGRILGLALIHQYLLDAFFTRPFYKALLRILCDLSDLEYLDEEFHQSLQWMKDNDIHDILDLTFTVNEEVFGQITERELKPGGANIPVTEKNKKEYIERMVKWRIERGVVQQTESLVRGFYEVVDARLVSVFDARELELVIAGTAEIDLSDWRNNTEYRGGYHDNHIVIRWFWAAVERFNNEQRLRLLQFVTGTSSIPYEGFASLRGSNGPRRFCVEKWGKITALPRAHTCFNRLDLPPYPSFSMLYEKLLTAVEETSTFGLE

Row | SMILES | IC50 (LNCaP cells) | IC50 (DU145 cells) | inhibition at 11 µM [1]
1 | CCOC(=O)/C=C/CNCCCCN1c2ccccc2CCc2ccc(Cl)cc21.O=C(O)/C=C\C(=O)O [Compound 12, Ethyl (E)-4-[4-(3-chloro-10,11-dihydro-5H-dibenzo[b,f]azepin-5-yl)butylamino]but-2-enoate maleate] | 6.67 µM | 6.81 µM | < 5%
2 | CCOC(=O)/C=C/CNCCCCN1c2cc(Cl)ccc2C(=O)N(C)c2ccccc21 [Compound 42, Ethyl (E)-4-{[4-(3-chloro-10-methyl-11-oxo-10,11-dihydro-5H-dibenzo[b,e][1,4]diazepin-5-yl)butyl]amino}but-2-enoate maleate] | 6.49 µM | 9.18 µM | < 15%
3 | CCOC(=O)/C=C/CNCCCCN1c2cc(Cl)ccc2C(=O)N(Cc2ccccc2)c2ccccc21 [Compound 56, Ethyl (E)-4-((4-(10-benzyl-3-chloro-11-oxo-10,11-dihydro-5H-dibenzo[b,e][1,4]diazepin-5-yl)butyl)amino)but-2-enoate maleate] | – | – | < 15%
4 | COC(=O)/C=C/CN(C)CCCCN1c2cc(Cl)ccc2C(=O)N(Cc2ccccc2)c2ccccc21 [Compound 58, Methyl (E)-4-{[4-(10-benzyl-3-chloro-11-oxo-10,11-dihydro-5H-dibenzo[b,e][1,4]diazepin-5-yl)butyl](methyl)amino}but-2-enoate maleate] | – | – | < 5%
5 | CN(C/C=C/C#N)CCCCN1c2cc(Cl)ccc2C(=O)N(Cc2ccccc2)c2ccccc21 [Compound 61, (E)-4-{[4-(10-benzyl-3-chloro-11-oxo-10,11-dihydro-5H-dibenzo[b,e][1,4]diazepin-5-yl)butyl](methyl)amino}but-2-enenitrile maleate] | – | – | < 5%
6 | C#CCON(C)C(=O)/C=C/CN(C)CCCCN1c2ccccc2CCc2ccc(Cl)cc21 [Compound 77, (E)-4-[4-(3-Chloro-10,11-dihydro-5H-dibenzo[b,f]azepin-5-yl)butyl-methyl-amino]-N-methyl-N-prop-2-ynoxy-but-2-enamide maleate] | – | – | < 15%
7 | CONC(=O)/C=C/CN(C)CCCCN1c2ccccc2CCc2ccc(Cl)cc21 [Compound 85, (E)-4-[4-(3-Chloro-10,11-dihydro-5H-dibenzo[b,f]azepin-5-yl)butyl-methyl-amino]-N-methoxy-but-2-enamide maleate] | 16.3 µM | 11.3 µM | < 5%
8 | CN(C/C=C/C(=O)OCCOCCOCCOCCNC(=O)CCCC[C@@H]1SC[C@@H]2NC(=O)N[C@@H]21)CCCCN1c2ccccc2CCc2ccc(Cl)cc21 [Compound 94, 2-[2-(2-{2-[5-((3aS,4S,6aR)-2-Oxo-hexahydro-thieno[3,4-d]imidazol-4-yl)-pentanoylamino]-ethoxy}-ethoxy)-ethoxy]-ethyl (E)-4-{[4-(3-chloro-10,11-dihydro-dibenzo[b,f]azepin-5-yl)-butyl]-methyl-amino}but-2-enoate] | – | – | < 15%

Now from value to compound:

Row | IC50 (LNCaP cells) | IC50 (DU145 cells) | inhibition at 11 µM [1] | SMILES
9 | 10.9 µM | 7.68 µM | < 15% | CCOC(=O)/C=C/CCNCCCN1c2ccccc2CCc2ccc(Cl)cc21 [Compound 5, Ethyl (E)-5-[3-(3-chloro-10,11-dihydro-5H-dibenzo[b,f]azepin-5-yl)propylamino]pent-2-enoate maleate]
10 | – | – | < 5% | CON(C)C(=O)/C=C/CN(C)CCCCN1c2ccccc2CCc2ccc(Cl)cc21 [Compound 9, (E)-4-[4-(3-Chloro-10,11-dihydro-5H-dibenzo[b,f]azepin-5-yl)butyl-methyl-amino]-N-methoxy-N-methyl-but-2-enamide]
11 | – | – | < 15% | CCOC(=O)/C=C/CNCCCCN1c2ccccc2C(=O)N(C)c2ccc(Cl)cc21 [Compound 29, Ethyl (E)-4-{[4-(7-chloro-10-methyl-11-oxo-10,11-dihydro-5H-dibenzo[b,e][1,4]diazepin-5-yl)butyl]amino}but-2-enoate maleate]
12 | 5.69 µM | 4.97 µM | < 20% | CCOC(=O)/C=C/CNCCCCN1c2ccccc2C(=O)N(Cc2ccccc2)c2ccc(Cl)cc21 [Compound 45, Ethyl (E)-4-{[4-(10-benzyl-7-chloro-11-oxo-10,11-dihydro-5H-dibenzo[b,e][1,4]diazepin-5-yl)butyl]amino}but-2-enoate maleate]
13 | – | – | < 5% | CONC(=O)/C=C/CNCCCCN1c2ccccc2CCc2ccc(Cl)cc21 [Compound 78, (E)-4-[4-(3-Chloro-10,11-dihydro-5H-dibenzo[b,f]azepin-5-yl)butylamino]-N-methoxy-but-2-enamide maleate]
